One test has as its target T1, Human BOAT1 (Homo sapiens, UniProt Q695T7).
T1 construct: expressed in transfected cells
T1 sequence (Q695T7 1-634): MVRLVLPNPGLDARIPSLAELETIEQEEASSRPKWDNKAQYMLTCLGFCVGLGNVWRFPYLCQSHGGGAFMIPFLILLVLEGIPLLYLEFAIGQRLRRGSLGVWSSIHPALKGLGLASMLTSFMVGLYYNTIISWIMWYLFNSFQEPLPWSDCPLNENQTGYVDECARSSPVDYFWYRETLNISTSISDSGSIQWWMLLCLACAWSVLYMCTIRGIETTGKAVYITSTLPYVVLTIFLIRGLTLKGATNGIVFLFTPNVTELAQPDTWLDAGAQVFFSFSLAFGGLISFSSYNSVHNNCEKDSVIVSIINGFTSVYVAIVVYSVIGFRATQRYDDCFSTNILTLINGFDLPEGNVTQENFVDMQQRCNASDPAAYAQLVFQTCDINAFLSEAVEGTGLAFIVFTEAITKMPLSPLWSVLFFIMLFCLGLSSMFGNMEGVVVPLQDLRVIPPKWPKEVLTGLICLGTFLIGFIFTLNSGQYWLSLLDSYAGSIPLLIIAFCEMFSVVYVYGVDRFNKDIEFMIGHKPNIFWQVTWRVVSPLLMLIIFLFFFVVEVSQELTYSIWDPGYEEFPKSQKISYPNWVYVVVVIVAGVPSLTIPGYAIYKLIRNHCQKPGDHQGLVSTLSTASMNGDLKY
As to the kind of experiment: hBOAT1 inhibitory test (phenylalanine uptake). It counts as cell-based. The conditions noted are these: Human BOAT1 stable expression CHO cells; [3H]-L-phenylalanine uptake, phenylalanine 0.25 mM; radioactivity after 100 to 200 min; read-out: hB0AT1 IC50. The essentials: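 Human BOAT1 stably expressed in CHO cells (75000 cells/well) in HEPES-buffered NaCl/KCl/CaCl2/MgCl2 buffer with 0.01% BSA, compound at 0.5% DMSO, preincubated ≥30 min at ordinary temperature. Uptake of L-phenylalanine plus [3H]-L-phenylalanine (0.25 mM final) read by scintillation proximity; 100–200 min values analysed, non-specific uptake defined with […] reference inhibitor.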

A further test addresses T2, hERG channel (Homo sapiens, UniProt Q12809).
T2 construct: host or cells: CHO cells
As to the kind of experiment: hERG channel inhibitory activity, whole-cell patch clamp (auto-patch clamp system). It counts as cell-based. The conditions noted are these: read-out: hERG IC50. As for the experimental part:
Evaluation of hERG (Human Ether-a-go-go Related Gene) Channel Inhibitory Activity
The hERG channel inhibitory activity of the compound of the present invention was measured using CHO cells (B′ SYS GmbH) forcibly expressing hERG channels involved in human rapidly active delayed rectifier potassium current (IKr) by the whole-cell patch clamp method using an auto-patch clamp system (SyncroPatch384PE).
Cell suspension, extracellular fluid, intracellular fluid, and measurement plate (NPC-384 plate) were placed in the auto-patch clamp system, and hERG current measurements were performed using the whole-cell patch clamp method. The voltage protocol was set to a holding potential of −80 mV, with a depolarizing pulse preceded by −90 mV (100 ms) and followed by −80 mV (100 ms).
The depolarizing pulse was […] (500 ms), and then the hERG peak current value obtained during the ramp phase was measured when the voltage was lowered to −80 mV over 100 ms. The protocol was applied at 5-second intervals for 5 minutes for each concentration.
SyncroPatch software (manufactured by Nanion) was used for data analysis. Four concentrations were applied incrementally for each test substance, and the average hERG Peak current value obtained from the last three stimuli of each applied concentration was used as the evaluation data. The IC50 value was calculated from the inhibition rate of the current at each concentration of each test substance relative to the pre-application value using Hill's equation (Hill equation) using the relevant software.
The same experiments were also performed using the example compounds described in WO 2023/145804 as comparative example compounds 1-4.
On the technique in general: Block of hERG is tested as a sign of cardiac risk.

SMILES strings stand for the structures. pIC50: −log10 of the molar value.

T2 sequence (Q12809 whole entry): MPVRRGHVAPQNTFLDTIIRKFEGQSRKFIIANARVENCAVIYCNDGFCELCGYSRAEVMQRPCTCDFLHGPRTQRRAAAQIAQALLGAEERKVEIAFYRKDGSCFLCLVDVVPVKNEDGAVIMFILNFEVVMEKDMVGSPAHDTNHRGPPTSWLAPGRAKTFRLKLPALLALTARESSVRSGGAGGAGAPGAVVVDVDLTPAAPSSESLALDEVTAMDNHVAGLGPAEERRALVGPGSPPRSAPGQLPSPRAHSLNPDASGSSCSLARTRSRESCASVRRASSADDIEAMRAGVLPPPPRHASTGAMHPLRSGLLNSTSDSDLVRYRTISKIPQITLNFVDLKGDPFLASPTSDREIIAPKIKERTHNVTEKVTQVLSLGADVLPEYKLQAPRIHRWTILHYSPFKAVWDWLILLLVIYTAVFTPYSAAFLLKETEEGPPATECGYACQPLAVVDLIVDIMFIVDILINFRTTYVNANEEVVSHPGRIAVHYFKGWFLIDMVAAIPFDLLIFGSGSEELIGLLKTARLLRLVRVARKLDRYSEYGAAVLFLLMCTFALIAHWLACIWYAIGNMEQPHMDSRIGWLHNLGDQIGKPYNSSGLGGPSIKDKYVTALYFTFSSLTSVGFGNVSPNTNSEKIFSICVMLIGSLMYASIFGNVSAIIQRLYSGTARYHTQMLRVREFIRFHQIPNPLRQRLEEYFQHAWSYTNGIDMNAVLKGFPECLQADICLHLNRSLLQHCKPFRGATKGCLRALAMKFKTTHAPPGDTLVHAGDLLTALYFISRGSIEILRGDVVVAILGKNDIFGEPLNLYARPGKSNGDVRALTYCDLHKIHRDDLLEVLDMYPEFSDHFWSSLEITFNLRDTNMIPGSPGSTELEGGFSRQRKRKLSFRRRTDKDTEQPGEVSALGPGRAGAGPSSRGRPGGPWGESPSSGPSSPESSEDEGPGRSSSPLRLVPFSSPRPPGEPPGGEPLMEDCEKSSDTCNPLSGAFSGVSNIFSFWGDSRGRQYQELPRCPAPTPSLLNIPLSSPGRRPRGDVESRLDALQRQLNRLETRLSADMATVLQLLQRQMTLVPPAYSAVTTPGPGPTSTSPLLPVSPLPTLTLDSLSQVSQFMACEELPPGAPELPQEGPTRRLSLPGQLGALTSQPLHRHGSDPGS

By pIC50 is commonly meant the IC50 on a negative log10 scale, so that one unit is a factor of ten. For `O=C(O)Cc1ccc2c(c1)CCN(C(=O)CNC(=O)/C=C/c1ccc(Cl)cc1F)C2` [I-186], the results for the pIC50 on Human BOAT1 and at hERG channel were 7.12 and < 4.52, respectively.

Consider `O=C(O)Cc1ccc2c(c1)CCN(C(=O)CNC(=O)/C=C/c1ccc(C(F)(F)F)cc1F)C2` [I-187], for which the pIC50 is 7.23 on Human BOAT1 and < 4.52 at hERG channel.

For the compound `O=C(O)Cc1ccc2c(c1)CCN(C(=O)CNC(=O)/C=C/c1ccc(S(F)(F)(F)(F)F)cc1)C2` [I-190], the pIC50 on Human BOAT1 is 6.99; at hERG channel it was < 4.52.

In the case of `O=C(O)COc1ccc2c(c1)CCN(C(=O)CNC(=O)/C=C/c1ccc(C(F)(F)F)cc1)C2` [I-191], the pIC50 is 6.98 at Human BOAT1 and < 4.52 at hERG channel.

On to `O=C(O)COc1cccc2c1CCN2C(=O)CNC(=O)/C=C/c1ccc(C(F)(F)F)cc1` [I-194], for which the pIC50 on Human BOAT1 was 7.13; at hERG channel, < 4.52.

For the compound `CC(C)(Oc1cc(F)c2c(c1)CCN(C(=O)CNC(=O)/C=C/c1ccc(C(F)(F)F)cc1)C2)C(=O)O` [I-195], the values for the pIC50 on Human BOAT1 and on hERG channel were 6.73 and < 4.52, respectively.

For `C[C@@H]1CN(C(=O)CNC(=O)/C=C/c2ccc(C(F)(F)F)cc2F)[C@@H](C)CN1CCCC(=O)O` [I-197], the results for the pIC50 on Human BOAT1 and at hERG channel were 5.62 and < 4.52, respectively.

With `C[C@@H]1CN(C(=O)CNC(=O)/C=C/c2ccc(C(F)(F)F)cc2F)[C@H](C)CN1CCCC(=O)O` [I-199], the pIC50 on Human BOAT1 was 6.43; at hERG channel, < 4.52.

Consider `O=C(O)Cc1nc2c(s1)CCN(C(=O)CNC(=O)/C=C/c1ccc(C(F)(F)F)cc1)C2` [I-201], for which the results for the pIC50 on Human BOAT1 and on hERG channel were 7.27 and < 4.52, respectively.

In the case of `O=C(O)Cc1nc2c(s1)CN(C(=O)CNC(=O)/C=C/c1ccc(C(F)(F)F)cc1)CC2` [I-202], the pIC50 on Human BOAT1 was 6.83; on hERG channel, < 4.52.

As to `O=C(O)CCCN1CCN(C(=O)CNC(=O)/C=C/c2ccc(C(F)(F)F)cc2)C(c2ccccc2)C1` (centres unmarked) [I-204], the pIC50 is 6.61 at Human BOAT1 and < 4.52 at hERG channel.

As for `O=C(O)Cc1cc(F)c2c(c1)CCN(C(=O)CNC(=O)/C=C/c1ccc(C(F)(F)F)cc1F)C2` [I-205], the results for the pIC50 on Human BOAT1 and on hERG channel were 7.00 and < 4.52, respectively.

Regarding `O=C(O)CSc1nc2c(s1)CN(C(=O)CNC(=O)/C=C/c1ccc(C(F)(F)F)cc1F)CC2` [I-214], the pIC50 on Human BOAT1 is 7.04; at hERG channel, < 4.52.

For `O=C(O)CSc1nc2c(s1)CN(C(=O)CNC(=O)/C=C/c1ccc(C(F)(F)F)cc1)CC2` [I-215], the figures for the pIC50 on Human BOAT1 and on hERG channel were 6.78 and < 4.52, respectively.

Consider `N#Cc1cc2c(cc1CC(=O)O)CCN(C(=O)CNC(=O)/C=C/c1ccc(I)cc1F)C2` [I-223], for which the pIC50 is 7.07 at Human BOAT1 and 4.55 on hERG channel.

Regarding `N#Cc1cc2c(cc1CC(=O)O)CCN(C(=O)CNC(=O)/C=C/c1ccc(C(F)(F)F)cc1F)C2` [I-224], the pIC50 on Human BOAT1 is 6.96; on hERG channel, < 4.52.

`N#Cc1cc2c(cc1CC(=O)O)CCN(C(=O)CNC(=O)/C=C/c1ccc(C(F)(F)F)cc1F)C2` [I-225]: the pIC50 is 6.53 at Human BOAT1 and 4.58 at hERG channel.

In the case of `O=C(O)Cc1cc2c(cc1Cl)CN(C(=O)CNC(=O)/C=C/c1ccc(C(F)(F)F)cc1)CC2` [I-226], the pIC50 is 7.00 on Human BOAT1 and < 4.52 at hERG channel.

Regarding `CC1CN(C(=O)CNC(=O)/C=C/c2ccc(C(F)(F)F)cc2F)CCN1CCCC(=O)O` (centres unmarked) [I-231], the pIC50 at Human BOAT1 was 6.63; on hERG channel it was < 4.52.

Consider `O=C(O)CCCN1CCN(C(=O)CNC(=O)/C=C/c2ccc(C(F)(F)F)cc2F)[C@@H](c2ccc(Br)cc2)C1` [I-232], for which the pIC50 on Human BOAT1 was 7.52; at hERG channel, 4.71.

With `O=C(O)CCCN1CCN(C(=O)CNC(=O)/C=C/c2ccc(C(F)(F)F)cc2F)C(c2ccccc2Cl)C1` (centres unmarked) [I-233], the figures for the pIC50 at Human BOAT1 and on hERG channel were 6.22 and < 4.52, respectively.

As for `O=C(O)CCCN1CCN(C(=O)CNC(=O)/C=C/c2ccc(C(F)(F)F)cc2F)C(c2ccc(F)cc2)C1` (centres unmarked) [I-237], the values for the pIC50 on Human BOAT1 and on hERG channel were 6.70 and < 4.52, respectively.

(Values after US20260001849A1, “NOVEL B0AT1 INHIBITOR” (MITSUBISHI TANABE PHARMA CORPORATION, priority 2023, published 2026).)
